Data taken from PubChem BioAssay (NCI).
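Five concentrations, 48 hours, 96-well plates. GI50: concentration for 50% inhibition of growth. TGI denotes the concentration required for complete inhibition of growth.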

Experiments:
Assay in all cases: growth of human tumour cells (NCI), 48 h
SN12C renal = tested on: SN12C renal
OVCAR-3 ovarian = tested on: OVCAR-3 ovarian
KM12 colon = tested on: KM12 colon
NCI/ADR-RES ovarian = tested on: NCI/ADR-RES ovarian
UO-31 renal = tested on: UO-31 renal
ACHN renal = tested on: ACHN renal
NCI-H226 lung = tested on: NCI-H226 lung
UACC-257 melanoma = tested on: UACC-257 melanoma
SK-MEL-28 melanoma = tested on: SK-MEL-28 melanoma
786-0 renal = tested on: 786-0 renal
DU-145 prostate = tested on: DU-145 prostate
LOX IMVI melanoma = tested on: LOX IMVI melanoma
TK-10 renal = tested on: TK-10 renal
HOP-92 NSCLC = tested on: HOP-92 NSCLC
T-47D breast = tested on: T-47D breast
OVCAR-8 ovarian = tested on: OVCAR-8 ovarian
OVCAR-5 ovarian = tested on: OVCAR-5 ovarian
HL-60(TB) leukemia = tested on: HL-60(TB) leukemia
MDA-MB-468 breast = tested on: MDA-MB-468 breast
SNB-75 CNS = tested on: SNB-75 CNS
SF-539 CNS = tested on: SF-539 CNS
PC-3 prostate = tested on: PC-3 prostate
HCT-15 colon = tested on: HCT-15 colon
HCC-2998 colon = tested on: HCC-2998 colon
SR leukemia = tested on: SR leukemia
CAKI-1 renal = tested on: CAKI-1 renal
K-562 leukemia = tested on: K-562 leukemia
NCI-H23 lung = tested on: NCI-H23 lung
IGROV1 ovarian = tested on: IGROV1 ovarian
SK-MEL-2 melanoma = tested on: SK-MEL-2 melanoma
UACC-62 melanoma = tested on: UACC-62 melanoma
SNB-19 CNS = tested on: SNB-19 CNS
HCT-116 colon = tested on: HCT-116 colon
RPMI-8226 leukemia = tested on: RPMI-8226 leukemia
MCF7 breast = tested on: MCF7 breast
SF-295 CNS = tested on: SF-295 CNS
HOP-62 NSCLC = tested on: HOP-62 NSCLC
OVCAR-4 ovarian = tested on: OVCAR-4 ovarian
SK-OV-3 ovarian = tested on: SK-OV-3 ovarian
A498 renal = tested on: A498 renal
NCI-H522 lung = tested on: NCI-H522 lung
MDA-MB-231 breast = tested on: MDA-MB-231 breast
MOLT-4 leukemia = tested on: MOLT-4 leukemia
A549 NSCLC = tested on: A549 NSCLC
RXF 393 renal = tested on: RXF 393 renal
NCI-H460 lung = tested on: NCI-H460 lung
EKVX NSCLC = tested on: EKVX NSCLC
BT-549 breast = tested on: BT-549 breast
M14 melanoma = tested on: M14 melanoma
SW-620 colon = tested on: SW-620 colon
U251 CNS = tested on: U251 CNS
MDA-MB-435 = tested on: MDA-MB-435
MALME-3M melanoma = tested on: MALME-3M melanoma
SF-268 CNS = tested on: SF-268 CNS
HS 578T breast = tested on: HS 578T breast
CCRF-CEM leukemia = tested on: CCRF-CEM leukemia

Which GI50 (SN12C renal) does the source give for COc1ccc(N(C)c2cc(C#N)nc3ccccc23)cc1/C=C/C(=O)NO here?
The GI50 was under 10 nM.

And the TGI (SN12C renal)?
The TGI was 5950 nM.

What about the GI50 (OVCAR-3 ovarian) of the same compound?
The GI50 was under 10 nM.

And the TGI (OVCAR-3 ovarian)?
Its TGI is 6180 nM.

What about the GI50 (KM12 colon) of the same compound?
Its GI50 is under 10 nM.

What about the TGI (KM12 colon) of the same compound?
The TGI was 1220 nM.

What about the GI50 (NCI/ADR-RES ovarian) of the same compound?
Its GI50 is under 10 nM.

What about the TGI (NCI/ADR-RES ovarian) of the same compound?
The TGI was under 10 nM.

What about the GI50 (UO-31 renal) of the same compound?
Its GI50 is under 10 nM.

And the TGI (UO-31 renal)?
The TGI was 12100 nM.

What about the GI50 (ACHN renal) of the same compound?
The GI50 was under 10 nM.

What about the TGI (ACHN renal) of the same compound?
Its TGI is 11700 nM.

And the GI50 (NCI-H226 lung)?
Its GI50 is under 10 nM.

What about the TGI (NCI-H226 lung) of the same compound?
The TGI was 5820 nM.

What about the GI50 (UACC-257 melanoma) of the same compound?
The GI50 was 1680 nM.

And the TGI (UACC-257 melanoma)?
The TGI was 20300 nM.

What about the GI50 (SK-MEL-28 melanoma) of the same compound?
Its GI50 is 551 nM.

And the TGI (SK-MEL-28 melanoma)?
The TGI was 3720 nM.

And the GI50 (786-0 renal)?
Its GI50 is under 10 nM.

What about the TGI (786-0 renal) of the same compound?
The TGI was 15000 nM.

What about the GI50 (DU-145 prostate) of the same compound?
The GI50 was under 10 nM.

What about the TGI (DU-145 prostate) of the same compound?
The TGI was 16800 nM.

What about the GI50 (LOX IMVI melanoma) of the same compound?
Its GI50 is under 10 nM.

What about the TGI (LOX IMVI melanoma) of the same compound?
The TGI was 1400 nM.

What about the GI50 (TK-10 renal) of the same compound?
The GI50 was 2220 nM.

What about the TGI (TK-10 renal) of the same compound?
Its TGI is 57100 nM.

And the TGI (HOP-92 NSCLC)?
Its TGI is 9060 nM.

What about the GI50 (T-47D breast) of the same compound?
Its GI50 is 2340 nM.

And the TGI (T-47D breast)?
The TGI was 80100 nM.

What about the GI50 (OVCAR-8 ovarian) of the same compound?
The GI50 was under 10 nM.

What about the GI50 (OVCAR-5 ovarian) of the same compound?
Its GI50 is under 10 nM.

And the TGI (OVCAR-5 ovarian)?
Its TGI is 10700 nM.

And the GI50 (HL-60(TB) leukemia)?
The GI50 was under 10 nM.

What about the TGI (HL-60(TB) leukemia) of the same compound?
Its TGI is under 10 nM.

And the GI50 (MDA-MB-468 breast)?
Its GI50 is under 10 nM.

What about the TGI (MDA-MB-468 breast) of the same compound?
Its TGI is under 10 nM.

And the GI50 (SNB-75 CNS)?
Its GI50 is under 10 nM.

What about the TGI (SNB-75 CNS) of the same compound?
The TGI was 2620 nM.

And the GI50 (SF-539 CNS)?
Its GI50 is under 10 nM.

What about the TGI (SF-539 CNS) of the same compound?
Its TGI is under 10 nM.

What about the GI50 (PC-3 prostate) of the same compound?
The GI50 was under 10 nM.

What about the TGI (PC-3 prostate) of the same compound?
Its TGI is over 40800 nM.

What about the GI50 (HCT-15 colon) of the same compound?
The GI50 was under 10 nM.

And the TGI (HCT-15 colon)?
Its TGI is 19700 nM.

What about the GI50 (HCC-2998 colon) of the same compound?
Its GI50 is under 10 nM.

What about the TGI (HCC-2998 colon) of the same compound?
Its TGI is under 10 nM.

What about the GI50 (SR leukemia) of the same compound?
Its GI50 is under 10 nM.

And the GI50 (CAKI-1 renal)?
The GI50 was under 10 nM.

What about the TGI (CAKI-1 renal) of the same compound?
Its TGI is 6220 nM.

What about the GI50 (K-562 leukemia) of the same compound?
The GI50 was under 10 nM.

And the TGI (K-562 leukemia)?
The TGI was over 40300 nM.

What about the GI50 (NCI-H23 lung) of the same compound?
Its GI50 is under 10 nM.

And the TGI (NCI-H23 lung)?
The TGI was 1250 nM.

What about the GI50 (IGROV1 ovarian) of the same compound?
The GI50 was under 10 nM.

And the TGI (IGROV1 ovarian)?
Its TGI is 4550 nM.

What about the GI50 (SK-MEL-2 melanoma) of the same compound?
The GI50 was under 10 nM.

What about the TGI (SK-MEL-2 melanoma) of the same compound?
The TGI was 630 nM.

And the GI50 (UACC-62 melanoma)?
Its GI50 is under 10 nM.

What about the TGI (UACC-62 melanoma) of the same compound?
The TGI was 2100 nM.

And the GI50 (SNB-19 CNS)?
The GI50 was under 10 nM.

And the TGI (SNB-19 CNS)?
Its TGI is 15100 nM.

What about the GI50 (HCT-116 colon) of the same compound?
The GI50 was under 10 nM.

And the TGI (HCT-116 colon)?
Its TGI is 1390 nM.

And the GI50 (RPMI-8226 leukemia)?
The GI50 was under 10 nM.

And the TGI (RPMI-8226 leukemia)?
Its TGI is 19200 nM.

What about the GI50 (MCF7 breast) of the same compound?
The GI50 was under 10 nM.

What about the TGI (MCF7 breast) of the same compound?
Its TGI is 17400 nM.

And the GI50 (SF-295 CNS)?
Its GI50 is under 10 nM.

What about the GI50 (HOP-62 NSCLC) of the same compound?
Its GI50 is under 10 nM.

What about the TGI (HOP-62 NSCLC) of the same compound?
Its TGI is 15300 nM.

And the GI50 (OVCAR-4 ovarian)?
Its GI50 is 1190 nM.

What about the TGI (OVCAR-4 ovarian) of the same compound?
Its TGI is 16900 nM.

What about the GI50 (SK-OV-3 ovarian) of the same compound?
Its GI50 is under 10 nM.

And the TGI (SK-OV-3 ovarian)?
Its TGI is 12400 nM.

What about the GI50 (A498 renal) of the same compound?
The GI50 was 15700 nM.

What about the TGI (A498 renal) of the same compound?
Its TGI is 54200 nM.

And the GI50 (NCI-H522 lung)?
The GI50 was under 10 nM.

What about the TGI (NCI-H522 lung) of the same compound?
The TGI was under 10 nM.

What about the GI50 (MDA-MB-231 breast) of the same compound?
Its GI50 is under 10 nM.

What about the TGI (MDA-MB-231 breast) of the same compound?
The TGI was under 10 nM.

What about the GI50 (MOLT-4 leukemia) of the same compound?
Its GI50 is under 10 nM.

What about the TGI (MOLT-4 leukemia) of the same compound?
Its TGI is over 35900 nM.

And the GI50 (A549 NSCLC)?
The GI50 was under 10 nM.

What about the TGI (A549 NSCLC) of the same compound?
The TGI was 22400 nM.

What about the GI50 (RXF 393 renal) of the same compound?
Its GI50 is under 43.5 nM.

And the TGI (RXF 393 renal)?
Its TGI is 3830 nM.

And the GI50 (NCI-H460 lung)?
The GI50 was under 10 nM.

What about the TGI (NCI-H460 lung) of the same compound?
Its TGI is 3650 nM.

And the GI50 (EKVX NSCLC)?
Its GI50 is under 10 nM.

What about the TGI (EKVX NSCLC) of the same compound?
The TGI was 13500 nM.

And the GI50 (BT-549 breast)?
The GI50 was under 10 nM.

What about the TGI (BT-549 breast) of the same compound?
Its TGI is 1910 nM.

And the GI50 (M14 melanoma)?
Its GI50 is under 10 nM.

What about the TGI (M14 melanoma) of the same compound?
Its TGI is 1860 nM.

And the GI50 (SW-620 colon)?
The GI50 was under 10 nM.

And the TGI (SW-620 colon)?
The TGI was 15200 nM.

And the GI50 (U251 CNS)?
The GI50 was under 10 nM.

And the TGI (U251 CNS)?
Its TGI is 9380 nM.

What about the GI50 (MDA-MB-435) of the same compound?
Its GI50 is under 10 nM.

And the TGI (MDA-MB-435)?
The TGI was under 10 nM.

And the GI50 (MALME-3M melanoma)?
Its GI50 is under 10 nM.

What about the TGI (MALME-3M melanoma) of the same compound?
Its TGI is 8740 nM.

And the GI50 (SF-268 CNS)?
The GI50 was under 10 nM.

What about the TGI (SF-268 CNS) of the same compound?
The TGI was 14200 nM.

What about the GI50 (HS 578T breast) of the same compound?
The GI50 was under 10 nM.

And the TGI (HS 578T breast)?
The TGI was 9650 nM.

What about the GI50 (CCRF-CEM leukemia) of the same compound?
Its GI50 is under 10 nM.
